# According to ChEMBL document CHEMBL1141515, “2-(1H-Imidazol-4-yl)ethanamine and 2-(1H-pyrazol-1-yl)ethanamine side chain variants of the IGF-1R inhibitor BMS-536924” (Bioorg Med Chem Lett, 2008):
# Tests used:
# [1] = system: Mus musculus; assay: AUC (0 to 4h) in mouse at 20 mg/kg, po; type: ADME, organism-based, Plasma; set-up: time < 4 hr, dose 20 mg/kg, route oral; settings: in vivo
# [2] = molecular target: T1, Insulin-like growth factor 1 receptor (Homo sapiens, UniProt P08069); assay: Inhibition of IGF1R
# [3] = molecular target: T1, Insulin-like growth factor 1 receptor; assay: Inhibition of IGF1R expressed in SAL cells; type: cell-based
# [4] = Protein binding in mouse serum; type: ADME, cell-free; settings: read-out: PB
# [5] = system: Serum; assay: Protein binding in human serum; type: ADME, cell-free
# T1 sequence (P08069 31-736 limits assumed): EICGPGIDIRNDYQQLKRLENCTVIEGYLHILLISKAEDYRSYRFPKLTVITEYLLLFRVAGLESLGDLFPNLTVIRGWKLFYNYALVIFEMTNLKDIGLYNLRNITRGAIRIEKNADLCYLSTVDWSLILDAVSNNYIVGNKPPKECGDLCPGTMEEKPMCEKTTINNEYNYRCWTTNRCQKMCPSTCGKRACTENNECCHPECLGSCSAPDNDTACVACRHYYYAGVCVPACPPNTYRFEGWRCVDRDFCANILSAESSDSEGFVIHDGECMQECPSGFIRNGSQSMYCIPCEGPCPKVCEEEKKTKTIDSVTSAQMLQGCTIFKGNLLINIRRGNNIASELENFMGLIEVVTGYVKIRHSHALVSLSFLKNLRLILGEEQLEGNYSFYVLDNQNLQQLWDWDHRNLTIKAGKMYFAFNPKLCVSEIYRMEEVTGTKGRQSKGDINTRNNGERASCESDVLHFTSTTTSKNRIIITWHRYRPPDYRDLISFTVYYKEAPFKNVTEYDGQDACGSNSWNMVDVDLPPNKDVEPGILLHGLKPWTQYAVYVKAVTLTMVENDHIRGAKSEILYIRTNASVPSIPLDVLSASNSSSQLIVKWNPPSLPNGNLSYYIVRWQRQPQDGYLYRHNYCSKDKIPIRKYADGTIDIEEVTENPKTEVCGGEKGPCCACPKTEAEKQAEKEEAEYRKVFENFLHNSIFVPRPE
# T1 sequence (P08069 741-1367 limits assumed): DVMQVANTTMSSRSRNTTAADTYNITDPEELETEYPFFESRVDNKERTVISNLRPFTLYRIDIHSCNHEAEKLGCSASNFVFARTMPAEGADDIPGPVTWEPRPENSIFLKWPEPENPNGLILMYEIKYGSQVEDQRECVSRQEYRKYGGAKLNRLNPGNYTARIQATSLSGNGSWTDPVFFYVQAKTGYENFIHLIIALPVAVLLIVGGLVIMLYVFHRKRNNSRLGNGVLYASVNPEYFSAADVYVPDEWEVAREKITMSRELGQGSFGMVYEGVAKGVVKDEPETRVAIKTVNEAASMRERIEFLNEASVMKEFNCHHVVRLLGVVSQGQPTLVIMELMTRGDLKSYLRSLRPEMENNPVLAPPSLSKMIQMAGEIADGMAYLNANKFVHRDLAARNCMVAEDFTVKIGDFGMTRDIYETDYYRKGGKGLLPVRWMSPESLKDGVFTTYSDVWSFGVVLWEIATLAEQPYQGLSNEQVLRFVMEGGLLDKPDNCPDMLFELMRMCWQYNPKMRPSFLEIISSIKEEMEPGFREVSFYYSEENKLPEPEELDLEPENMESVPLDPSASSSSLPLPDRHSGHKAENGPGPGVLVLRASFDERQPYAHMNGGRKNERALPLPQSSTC
SMILES,AUC [1] [µM·h],other results
Cc1cc(N2CCOCC2)cc2[nH]c(-c3c(NCCn4cc(Cl)cn4)cc[nH]c3=O)nc12,90.3,
CCn1cnc(CCNc2cc[nH]c(=O)c2-c2nc3c(C)cc(N4CCOCC4)cc3[nH]2)c1Cl,50.9,
Cc1cc(N2CCOCC2)cc2[nH]c(-c3c(NCCc4nc(C)n(C)c4Cl)cc[nH]c3=O)nc12,36,
CCOC(=O)c1cnn(CCNc2cc[nH]c(=O)c2-c2nc3c(C)cc(N4CCOCC4)cc3[nH]2)c1,4.9,
CCn1cnc(CCNc2cc[nH]c(=O)c2-c2nc3c(C)cc(N4CCOCC4)cc3[nH]2)c1Br,,IC50 [2]: 172 nM; IC50 [3]: 284 nM
Cc1cc(N2CCOCC2)cc2[nH]c(-c3c(NCCn4ncc(Br)c4C)cc[nH]c3=O)nc12,33,
Cc1cc(N2CCOCC2)cc2[nH]c(-c3c(NCCc4nc(Cl)n(C)c4Cl)cc[nH]c3=O)nc12,32.2,
COC(=O)c1cnn(CCNc2cc[nH]c(=O)c2-c2nc3c(C)cc(N4CCOCC4)cc3[nH]2)c1,14.1,
Cc1cc(N2CCOCC2)cc2[nH]c(-c3c(NCCn4cc(Br)c(CO)n4)cc[nH]c3=O)nc12,2,
Cc1cc(N2CCOCC2)cc2[nH]c(-c3c(NC[C@@H](O)c4cccc(Cl)c4)cc[nH]c3=O)nc12,50.9,fraction unbound [4]: < 0.001; PB [5]: 99.6%
Cc1cc(N2CCOCC2)cc2[nH]c(-c3c(NCCn4nccc4C)cc[nH]c3=O)nc12,5.2,IC50 [2]: 270 nM; IC50 [3]: 542 nM
Cc1nn(CCNc2cc[nH]c(=O)c2-c2nc3c(C)cc(N4CCOCC4)cc3[nH]2)cc1Br,132,
Cc1cc(N2CCOCC2)cc2[nH]c(-c3c(NCCn4cccn4)cc[nH]c3=O)nc12,1.6,
Cc1cnn(CCNc2cc[nH]c(=O)c2-c2nc3c(C)cc(N4CCOCC4)cc3[nH]2)c1,2.7,
Cc1ccn(CCNc2cc[nH]c(=O)c2-c2nc3c(C)cc(N4CCOCC4)cc3[nH]2)n1,1.2,IC50 [2]: 290 nM; IC50 [3]: 422 nM
Cc1cc(N2CCOCC2)cc2[nH]c(-c3c(NCCc4ncn(C)c4Cl)cc[nH]c3=O)nc12,8.2,
Cc1nn(CCNc2cc[nH]c(=O)c2-c2nc3c(C)cc(N4CCOCC4)cc3[nH]2)cc1Cl,57.8,
Cc1cc(N2CCOCC2)cc2[nH]c(-c3c(NCCc4cn(C)cn4)cc[nH]c3=O)nc12,3.8,
